Where “and” joins values, the source holds several entries; their conditions need not be identical. Identical values can stand only once.
How the values were obtained:
individual B = experiment: Ergometer study c): Preparations I-IV with sulphonylureas and/or glucocorticoids, 5 minutes before test (Example 39); format: in vivo, human; conditions: 125 W for 45 min, ingested 5 min before test, chlorpropamide 20 mg, glibornuride 1 mg, glibenclamide 100 μg, dexamethasone 20 μg, prednisolone 200 μg, Prep. one dose unit
Procedure: (§1) Analogously to Example 37, the following studies a) to c) were carried out on two male individuals, trained for endurance cycling and kept on a permanently carbohydrate-rich diet; individual A (weighing 67 kg) having a maximum oxygen uptake capacity of 3.3 l and an oxygen transport volume per heart beat of 29 ml (corresponding to 0.6 kJ), and individual B (weighing 74 kg) having a maximum oxygen uptake capacity of 4.5 l and an oxygen transport volume per heart beat of 36 ml (corresponding to 0.75 kJ) . The following preparations were used, in which the indicated amounts correspond to one dose unit and which were obtained by dissolving or suspending the components in water and gelling the mixture:
(§2) Prep. I: 10 mg of D-glucose, 1 mg of thiamine and 10 mg of ascorbic acid heated with 5 mg of agar-agar in 1 ml of water;
(§3) Prep. II: 25 mg of ethanol, 1 mg of thiamine and 50 μg of biotin heated with 5 mg of agar-agar in 1 ml of water;
Prep. III: 25 mg of ethanol, 250 μg of folic acid and 5 μg of cyanocobalamin heated with 5 mg of gelatin in 1 ml of water;
Prep. IV: 10 mg of H-Gly-Gly-OH, 300 μg of folic acid and 5 μg of cyanocobalamin heated 5 mg of gelatin in 1 ml of water.
(§4) H-Gly-Gly-OH was bought from Novabiochem, Läufelfingen, Switzerland. Insulin was injected subcutaneously, while the other medicaments were ingested alone or together with one of Preparations I-IV.
c) In a further test series, the effect of Preparations I-IV was tested when applied in combination with sulphonylurea derivatives and/or glucocorticoids immediately before the physical exercise. In these tests, individual B was subjected to a workload of 125 W (60 r.p.m.) for 45 minutes; the drugs and Preparations were ingested 5 minutes before the test.

[1] = test system: male individuals A and B, trained for endurance cycling; experiment: Ergometer study b): sulphonylureas, glucocorticoids, Preparation I and combinations, evening before test (Example 39); format: in vivo, human; conditions: individual A, 100 W for 25 min, before sleep, glibenclamide 2.5 mg, glibornuride 25 mg
Procedure: as §1, §2, §4
b) In a second study, antidiabetic sulphonyl urea derivatives, glucocorticoids, Preparation I and combinations thereof were administered before sleep, the evening before the tests. In the tests, individual A was subjected to a workload of 100 W (60 r.p.m.) for 25 minutes (tests A1-A9), and individual B was subjected to a workload of 175 W (60 r.p.m.) for 45 minutes (tests B10-B33).

[2] = test system: male individuals A and B, trained for endurance cycling; experiment: Ergometer study a): insulin or sulphonylureas alone or with gelatin and/or Preparation I or II, 15 minutes before test (Example 39); format: in vivo, human
Procedure: as §1, §2, §3, §4
a) In a first study, insulin or antidiabetic sulphonylurea derivatives were applied, alone or in combination with gelatin and/or Preparation I or II, 15 minutes before the tests. In the tests, individual A was subjected to a workload of 100 W (60 r.p.m.) for 15 minutes (tests A1-A8), and individual B was subjected to a workload of 175 W (60 r.p.m.) for 10 minutes (tests B9-B29).

[3] = Stimulation of glycogen synthesis and anaerobic glucose breakdown in the muscle by other sugars (description); format: in vivo; conditions: even if taken together with vitamin B1 and vitamin C
Source text: D-Maltose can replace the D-glucose in the preparation according to the invention and is even active in considerably lower amounts. […] The conversion of the sucrose or fructose to glucose, however, only takes place in the liver if they have been absorbed from the small intestine.

[4] = individual B, 175 W for 10 min, 15 min before test, 5 I.U. insulin s.c., glibenclamide 2.5 mg alone or 100 μg with gelatin, chlorpropamide 10 mg, gelatin 5 mg, Prep. one dose unit
[5] = individual A, 100 W for 15 min, 2.5 mg glibenclamide 15 min before test

Cc1ccc(S(=O)(=O)NC(=O)N[C@H]2[C@H]3CC[C@@](C)([C@H]2O)C3(C)C)cc1 [glibornuride]
Heat production (individual B): 2706 kJ
Mean heart rate (individual B): 132.2 per min.
Oxygen consumption (individual B): 130 L
Heat production [1]: 600 kJ
Mean heart rate [1]: 100.0 per min.
Oxygen consumption [1]: 29 L

insulin
Effect on heat production and oxygen consumption induced by constant physical work loads ([2]; applied 15 minutes before the test): increase
Heat production [2, 4]: 675 kJ and 696 kJ (2×)
Mean heart rate [2, 4]: 142.0 per min. and 144.8 per min. (2×)
Oxygen consumption [2, 4]: 32 liter and 33 liter (2×)

CCCNC(=O)NS(=O)(=O)c1ccc(Cl)cc1 [chlorpropamide]
Heat production (individual B): 2717 kJ
Mean heart rate (individual B): 132.5 per min.
Oxygen consumption (individual B): 130 L

O=C(CO)[C@@H](O)[C@H](O)[C@H](O)CO [fructose]
Stimulation of glycogen synthesis and of the anaerobic glucose breakdown in the muscle [3]: ineffective

OC[C@H]1O[C@@](CO)(O[C@H]2O[C@H](CO)[C@@H](O)[C@H](O)[C@H]2O)[C@@H](O)[C@@H]1O [sucrose]
Stimulation of glycogen synthesis and of the anaerobic glucose breakdown in the muscle [3]: ineffective

COc1ccc(Cl)cc1C(=O)NCCc1ccc(S(=O)(=O)NC(=O)NC2CCCCC2)cc1 [glibenclamide]
Heat production (individual B): 2727 kJ
Mean heart rate (individual B): 132.6 per min.
Oxygen consumption (individual B): 131 L
Heat production [1]: 622 kJ and 613 kJ and 531 kJ
Mean heart rate [1]: 101.5 per min. and 100.9 per min. and 95.4 per min.
Oxygen consumption [1]: 30 liter (2×) and 26 liter
Heat production [2, 5]: 687 kJ and 700 kJ and 679 kJ
Mean heart rate [2, 5]: 136.4 per min. and 137.8 per min. and 135.4 per min.
Oxygen consumption [2, 5]: 33 liter (2×) and 34 liter
Heat production [2, 4]: 724 kJ and 698 kJ
Mean heart rate [2, 4]: 147.5 per min. and 145.1 per min.
Oxygen consumption [2, 4]: 34 L

— patent US20010020007A1, “Vitamin preparations for reducing oxygen consumption during physical efforts” (priority 1996, published 2001)
